Legend:
CDK12 = CDK12 (Homo sapiens, UniProt Q9NYV4); test: CDK12 degradation in MDA-MB-231 cells by immunoblotting; assay type: cell-based; parameters: Immunoblotting of CDK12 and CDK13 in MDA-MB-231 cells treated with increasing concentrations of ZLC491 for 15 h; endogenous in cells; host or cells: MDA-MB-231; conditions: 0.3 μM; for Protein Degradation (%DMSO control, 0.3 μM) CDK12: MDA-MB-231 cells, 15 h, immunoblotting, normalized against α-tubulin; for Degradation rates of CDK12 at 0.3 μM: supplementary CSV
Procedure: (§1) The degradation efficiency of the new molecules was assessed by immunoblotting after treatment with the compounds at 0.3 μM in MD-MBA-231 cells for 15 h.
(§2) To further characterize the compound, we determined the half-degradation concentration (DC50) values of ZLC491 in MDA-MB-231 cells. […] We also treated MDA-MB-231 cells with 1 μM ZLC491 at various time points.
(§3) (A) Immunoblotting of CDK12 and CDK13 in MDA-MB-231 cells treated with increasing concentrations of ZLC491 for 15 h (left). Percent remaining CDK12 and CDK13 proteins were plotted for DC50 determination (right). Protein levels were quantified using ImageJ and normalized to corresponding α-tubulin, then plotted using Graphpad Prism 8.0. The data were representative of three independent experiments; (B) immunoblotting of CDK12 and CDK13 proteins in MDA-MB-231 cells treated with ZLC491 for various time points; immunoblotting of CDK12 and CDK13 in HCC38 (C) and MDA-MB-436 (D) cells treated with increasing concentrations of ZLC491 for 15 h. α-Tubulin was used as a loading control. TEXT PRINTED IN THE PICTURE: (A) ZLC491: MDA-MB-231: CDK12 DC50 = 0.032μM; MDA-MB-231: CDK13 DC50 = 0.028μM DOUBTS OF THE COPYIST ABOUT THIS PICTURE: ZLC491, CDK12 DC50: 0.032 read from small print, the digits 3 and 2 are uncertain / ZLC491, CDK13 DC50: 0.028 read from small print, the last digit may be 8, 6 or 3
(§4) Generally, the tested cells were washed by ice-cold PBS buffer (Gibco) and lysed with an SDS lysis buffer (62.5 mM Tris, 2% w/v SDS, 10 glycerol, 50 mM DTT, 0.01% w/v bromophenol blue) on ice, after which the protein lysate samples were collected to 1.5 mL microcentrifuge tubes and treated with ultrasonic for 10 s, following with a 100 °C incubation for 10 min and a 4 °C centrifugation of 12000 rpm for 10 min. An equal amount of protein was loaded to 4–8% Bis-Tris gels and underwent an SDS-PAGE electrophoresis at 55V for 30 min and 95V for 90 min. Proteins on gels were then transferred to a polyvinylidene difluoride (PVDF) membrane (Bio-Rad) with a wet electro transfer system (Bio-Rad). The PVDF membrane was cut into bands and incubated in a blocking reagent (5% defatted milk powder dissolved in TBST) at room temperature for 1–2 h. Incubate membrane and primary antibody (at the appropriate dilution and diluent as recommended in the product webpage) at 4 °C for 12–14 h, followed with three times washes by TBST. The washed membranes were incubated in a secondary antibody solution (HRP-linked antirabbit IgG or antimouse IgG (CST), 1:2000 diluted into TBST) at room temperature for 2 h. Membranes were photographed in Amersham Imager 800 system using StarSignal plus regent (GenStar) or Omni-ECL reagent (EpiZyme). Compounds MG132, MLN4924, Bafilomycin A1 and pomalidomide were purchased from MedChemExpress (MCE) LLC.

CDK13 = molecular target: T1, CDK13 (Homo sapiens, UniProt Q14004); test: CDK13 degradation in MDA-MB-231 cells by immunoblotting; assay type: cell-based; conditions: 0.3 μM; for Protein Degradation (%DMSO control, 0.3 μM) CDK13: MDA-MB-231 cells, 15 h, immunoblotting, normalized against α-tubulin; for Degradation rates of CDK13 at 0.3 μM: supplementary CSV;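 on Protein Degradation (%DMSO control, 0.3 μM) CDK13: percent of CDK13 protein degraded relative to DMSO control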
T1 construct: Immunoblotting of CDK12 and CDK13 in MDA-MB-231 cells treated with increasing concentrations of ZLC491 for 15 h; endogenous in cells; host or cells: MDA-MB-231
Procedure: as §1, §2, §3, §4

Sequence of CDK12 (Q9NYV4 whole entry): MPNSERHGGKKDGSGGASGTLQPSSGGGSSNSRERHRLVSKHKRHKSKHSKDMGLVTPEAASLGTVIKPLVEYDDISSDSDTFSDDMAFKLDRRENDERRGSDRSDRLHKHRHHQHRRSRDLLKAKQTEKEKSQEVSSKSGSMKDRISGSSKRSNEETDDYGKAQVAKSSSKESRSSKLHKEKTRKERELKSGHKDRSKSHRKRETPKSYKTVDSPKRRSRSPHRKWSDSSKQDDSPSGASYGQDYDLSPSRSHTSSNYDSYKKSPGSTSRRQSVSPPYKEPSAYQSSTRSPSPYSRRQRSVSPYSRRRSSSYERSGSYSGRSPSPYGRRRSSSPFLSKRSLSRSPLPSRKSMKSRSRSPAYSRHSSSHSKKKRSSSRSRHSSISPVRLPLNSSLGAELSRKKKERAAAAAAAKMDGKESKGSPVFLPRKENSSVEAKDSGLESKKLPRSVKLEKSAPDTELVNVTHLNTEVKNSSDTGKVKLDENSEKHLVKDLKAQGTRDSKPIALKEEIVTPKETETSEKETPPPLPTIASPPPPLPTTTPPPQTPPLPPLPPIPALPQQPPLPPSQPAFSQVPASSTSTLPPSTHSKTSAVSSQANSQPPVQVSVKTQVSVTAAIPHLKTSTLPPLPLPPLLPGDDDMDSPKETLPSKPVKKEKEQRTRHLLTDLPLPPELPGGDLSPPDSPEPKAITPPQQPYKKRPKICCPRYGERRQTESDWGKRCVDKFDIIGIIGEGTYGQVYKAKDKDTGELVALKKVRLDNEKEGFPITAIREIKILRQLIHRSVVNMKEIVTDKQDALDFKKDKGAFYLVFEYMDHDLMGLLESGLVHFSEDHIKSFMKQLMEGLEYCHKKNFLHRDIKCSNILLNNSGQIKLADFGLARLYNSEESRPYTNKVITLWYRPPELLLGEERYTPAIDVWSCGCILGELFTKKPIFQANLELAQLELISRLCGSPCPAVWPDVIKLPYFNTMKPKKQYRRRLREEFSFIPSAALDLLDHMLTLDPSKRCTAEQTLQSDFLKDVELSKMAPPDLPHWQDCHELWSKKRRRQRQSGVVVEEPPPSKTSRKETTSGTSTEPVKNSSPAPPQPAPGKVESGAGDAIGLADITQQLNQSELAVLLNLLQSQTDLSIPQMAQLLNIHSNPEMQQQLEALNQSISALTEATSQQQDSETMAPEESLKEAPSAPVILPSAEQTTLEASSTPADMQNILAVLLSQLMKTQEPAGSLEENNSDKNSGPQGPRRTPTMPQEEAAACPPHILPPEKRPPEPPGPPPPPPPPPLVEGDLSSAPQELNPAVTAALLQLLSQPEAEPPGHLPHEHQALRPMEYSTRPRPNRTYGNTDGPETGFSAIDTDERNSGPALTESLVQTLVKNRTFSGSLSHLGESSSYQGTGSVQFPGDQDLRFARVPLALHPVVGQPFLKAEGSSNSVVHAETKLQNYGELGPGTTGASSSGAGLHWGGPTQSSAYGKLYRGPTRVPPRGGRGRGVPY
Sequence of CDK12 (O75909 whole entry partner): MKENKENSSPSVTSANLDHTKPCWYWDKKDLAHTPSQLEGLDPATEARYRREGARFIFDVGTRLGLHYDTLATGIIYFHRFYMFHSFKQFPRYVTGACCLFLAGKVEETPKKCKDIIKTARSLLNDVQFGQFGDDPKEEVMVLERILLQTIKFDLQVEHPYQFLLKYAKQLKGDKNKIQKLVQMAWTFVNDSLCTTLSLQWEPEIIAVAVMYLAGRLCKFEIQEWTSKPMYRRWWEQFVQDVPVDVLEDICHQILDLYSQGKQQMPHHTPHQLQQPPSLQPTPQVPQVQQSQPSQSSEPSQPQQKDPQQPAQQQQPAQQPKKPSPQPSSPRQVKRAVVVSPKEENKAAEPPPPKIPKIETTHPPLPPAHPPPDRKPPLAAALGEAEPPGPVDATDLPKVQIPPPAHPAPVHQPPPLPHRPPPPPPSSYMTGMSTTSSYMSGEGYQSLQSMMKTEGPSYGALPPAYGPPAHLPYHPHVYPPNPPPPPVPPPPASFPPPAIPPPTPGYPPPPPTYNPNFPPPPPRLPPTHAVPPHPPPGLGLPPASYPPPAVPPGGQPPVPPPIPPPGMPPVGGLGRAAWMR
T1 sequence (Q14004 whole entry): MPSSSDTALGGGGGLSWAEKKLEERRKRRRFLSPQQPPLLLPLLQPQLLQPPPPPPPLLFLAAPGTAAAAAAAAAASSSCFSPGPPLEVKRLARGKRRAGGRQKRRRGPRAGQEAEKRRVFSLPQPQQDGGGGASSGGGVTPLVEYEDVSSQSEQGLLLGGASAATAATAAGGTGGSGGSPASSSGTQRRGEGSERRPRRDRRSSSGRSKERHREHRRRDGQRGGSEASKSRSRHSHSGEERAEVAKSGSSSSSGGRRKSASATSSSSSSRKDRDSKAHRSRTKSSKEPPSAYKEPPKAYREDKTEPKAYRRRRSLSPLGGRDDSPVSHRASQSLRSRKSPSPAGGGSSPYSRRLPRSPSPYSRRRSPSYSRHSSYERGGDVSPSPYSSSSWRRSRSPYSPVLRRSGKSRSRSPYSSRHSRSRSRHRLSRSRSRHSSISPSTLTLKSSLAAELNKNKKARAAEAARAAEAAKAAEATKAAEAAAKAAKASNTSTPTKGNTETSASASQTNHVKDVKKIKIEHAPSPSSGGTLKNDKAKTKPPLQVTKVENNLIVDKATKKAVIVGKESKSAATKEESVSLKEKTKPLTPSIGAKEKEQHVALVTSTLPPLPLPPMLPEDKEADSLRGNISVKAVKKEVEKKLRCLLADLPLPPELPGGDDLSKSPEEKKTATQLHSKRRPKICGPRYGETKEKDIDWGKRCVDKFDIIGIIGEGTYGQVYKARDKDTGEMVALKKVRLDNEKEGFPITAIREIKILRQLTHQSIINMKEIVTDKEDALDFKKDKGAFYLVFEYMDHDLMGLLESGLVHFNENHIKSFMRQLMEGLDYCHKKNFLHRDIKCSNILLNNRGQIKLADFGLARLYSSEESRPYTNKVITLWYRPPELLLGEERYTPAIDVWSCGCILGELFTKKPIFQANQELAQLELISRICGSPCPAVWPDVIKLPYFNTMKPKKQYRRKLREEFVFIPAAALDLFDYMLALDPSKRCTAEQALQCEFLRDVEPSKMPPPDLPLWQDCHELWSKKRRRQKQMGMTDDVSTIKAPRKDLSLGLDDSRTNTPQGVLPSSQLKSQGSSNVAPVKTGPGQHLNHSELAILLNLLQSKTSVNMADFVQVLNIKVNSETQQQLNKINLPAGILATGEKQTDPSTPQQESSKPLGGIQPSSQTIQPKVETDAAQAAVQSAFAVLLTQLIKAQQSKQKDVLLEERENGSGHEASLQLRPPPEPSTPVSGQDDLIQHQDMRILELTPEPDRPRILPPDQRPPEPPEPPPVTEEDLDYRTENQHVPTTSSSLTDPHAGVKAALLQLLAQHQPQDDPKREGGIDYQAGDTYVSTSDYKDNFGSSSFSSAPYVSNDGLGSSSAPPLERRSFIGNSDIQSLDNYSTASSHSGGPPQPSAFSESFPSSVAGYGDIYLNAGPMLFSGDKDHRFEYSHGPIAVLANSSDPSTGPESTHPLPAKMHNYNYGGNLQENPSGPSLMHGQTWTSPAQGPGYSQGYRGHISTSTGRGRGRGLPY
T1 sequence (O75909 whole entry partner): as the sequence (O75909 whole entry partner) above

Protein Degradation (%DMSO control, 0.3 μM) CDK12 (CDK12) [%]	Degradation rates of CDK12 at 0.3 μM (CDK12) [%]	Protein Degradation (%DMSO control, 0.3 μM) CDK13 (CDK13) [%]	Degradation rates of CDK13 at 0.3 μM (CDK13) [%]	Compound
35	35	38	38	N#Cc1ccc(N[C@H]2CC[C@H](N(C(=O)NCc3ccccc3)c3ccc(N4CCN(C(=O)C5CN(c6ccc7c(c6)C(=O)N(C6CCC(=O)NC6=O)C7=O)C5)CC4)cc3)CC2)nc1 (stereo partly drawn) [4a, 3-Benzyl-1-((1r,4r)-4-((5-cyanopyridin-2-yl)amino)cyclohexyl)-1-(4-(4-(1-(2-(2,6-dioxopiperidin-3-yl)-1,3-dioxoisoindolin-5-yl)azetidine-3-carbonyl)piperazin-1-yl)phenyl)urea]
61	61	65	65	N#Cc1ccc(N[C@H]2CC[C@H](N(C(=O)NCc3ccccc3)c3ccc(N4CCN(C(=O)C5CCN(c6ccc7c(c6)C(=O)N(C6CCC(=O)NC6=O)C7=O)C5)CC4)cc3)CC2)nc1 (stereo partly drawn) [4b, 3-Benzyl-1-((1r,4r)-4-((5-cyanopyridin-2-yl)amino)cyclohexyl)-1-(4-(4-(1-(2-(2,6-dioxopiperidin-3-yl)-1,3-dioxoisoindolin-5-yl)pyrrolidine-3-carbonyl)piperazin-1-yl)phenyl)urea]
38	38	51	51	N#Cc1ccc(N[C@H]2CC[C@H](N(C(=O)NCc3ccccc3)c3ccc(N4CCN(C(=O)C5CCN(c6ccc7c(c6)C(=O)N(C6CCC(=O)NC6=O)C7=O)CC5)CC4)cc3)CC2)nc1 (stereo partly drawn) [4c, 3-Benzyl-1-((1r,4r)-4-((5-cyanopyridin-2-yl)amino)cyclohexyl)-1-(4-(4-(1-(2-(2,6-dioxopiperidin-3-yl)-1,3-dioxoisoindolin-5-yl)piperidine-4-carbonyl)piperazin-1-yl)phenyl)urea]
60	60	71	71	N#Cc1ccc(N[C@H]2CC[C@H](N(C(=O)NCc3ccccc3)c3ccc(N4CCN(CC5CN(c6ccc7c(c6)C(=O)N(C6CCC(=O)NC6=O)C7=O)C5)CC4)cc3)CC2)nc1 (stereo partly drawn) [4d, 3-Benzyl-1-((1r,4r)-4-((5-cyanopyridin-2-yl)amino)cyclohexyl)-1-(4-(4-((1-(2-(2,6-dioxopiperidin-3-yl)-1,3-dioxoisoindolin-5-yl)azetidin-3-yl)methyl)piperazin-1-yl)phenyl)urea]
50	50	70	70	N#Cc1ccc(N[C@H]2CC[C@H](N(C(=O)NCc3ccccc3)c3ccc(N4CCN(C[C@@H]5CCN(c6ccc7c(c6)C(=O)N(C6CCC(=O)NC6=O)C7=O)C5)CC4)cc3)CC2)nc1 (stereo partly drawn) [4e, 3-Benzyl-1-((1r,4s)-4-((5-cyanopyridin-2-yl)amino)cyclohexyl)-1-(4-(4-(((3S)-1-(2-(2,6-dioxopiperidin-3-yl)-1,3-dioxoisoindolin-5-yl)pyrrolidin-3-yl)methyl)piperazin-1-yl)phenyl)urea]
59	59	64	64	N#Cc1ccc(N[C@H]2CC[C@H](N(C(=O)NCc3ccccc3)c3ccc(N4CCN(C[C@H]5CCN(c6ccc7c(c6)C(=O)N(C6CCC(=O)NC6=O)C7=O)C5)CC4)cc3)CC2)nc1 (stereo partly drawn) [4f, 3-Benzyl-1-((1r,4r)-4-((5-cyanopyridin-2-yl)amino)cyclohexyl)-1-(4-(4-(((3R)-1-(2-(2,6-dioxopiperidin-3-yl)-1,3-dioxoisoindolin-5-yl)pyrrolidin-3-yl)methyl)piperazin-1-yl)phenyl)urea]
74	74	84	84	N#Cc1ccc(N[C@H]2CC[C@H](N(C(=O)NCc3ccccc3)c3ccc(N4CCN(CC5CCN(c6ccc7c(c6)C(=O)N(C6CCC(=O)NC6=O)C7=O)CC5)CC4)cc3)CC2)nc1 (stereo partly drawn) [4g, 3-Benzyl-1-((1r,4r)-4-((5-cyanopyridin-2-yl)amino)cyclohexyl)-1-(4-(4-((1-(2-(2,6-dioxopiperidin-3-yl)-1,3-dioxoisoindolin-5-yl)piperidin-4-yl)methyl)piperazin-1-yl)phenyl)urea]
53	53	57	57	N#Cc1ccc(N[C@H]2CC[C@H](N(C(=O)NCc3ccccc3)c3ccc(N4CCN(CC5CCN(c6cc7c(cc6F)C(=O)N(C6CCC(=O)NC6=O)C7=O)CC5)CC4)cc3)CC2)nc1 (stereo partly drawn) [4g-F, 3-Benzyl-1-((1r,4r)-4-((5-cyanopyridin-2-yl)amino)cyclohexyl)-1-(4-(4-((1-(2-(2,6-dioxopiperidin-3-yl)-6-fluoro-1,3-dioxoisoindolin-5-yl)piperidin-4-yl)methyl)piperazin-1-yl)phenyl)urea]
37	37	61	61	N#Cc1ccc(N[C@H]2CC[C@H](N(C(=O)NCc3ccccc3)c3ccc(N4CC(CN5CCN(c6ccc7c(c6)C(=O)N(C6CCC(=O)NC6=O)C7=O)CC5)C4)cc3)CC2)nc1 (stereo partly drawn) [4h, 3-Benzyl-1-((1r,4r)-4-((5-cyanopyridin-2-yl)amino)cyclohexyl)-1-(4-(3-((4-(2-(2,6-dioxopiperidin-3-yl)-1,3-dioxoisoindolin-5-yl)piperazin-1-yl)methyl)azetidin-1-yl)phenyl)urea]
28	28	16	16	N#Cc1ccc(N[C@H]2CC[C@H](N(C(=O)NCc3ccccc3)c3ccc(N4CCC(CN5CCN(c6ccc7c(c6)C(=O)N(C6CCC(=O)NC6=O)C7=O)CC5)C4)cc3)CC2)nc1 (stereo partly drawn) [4i, 3-Benzyl-1-((1r,4r)-4-((5-cyanopyridin-2-yl)amino)cyclohexyl)-1-(4-(3-((4-(2-(2,6-dioxopiperidin-3-yl)-1,3-dioxoisoindolin-5-yl)piperazin-1-yl)methyl)pyrrolidin-1-yl)phenyl)urea]
49	49	71	71	N#Cc1ccc(N[C@H]2CC[C@H](N(C(=O)NCc3ccccc3)c3ccc(N4CCC(CN5CCN(c6ccc7c(c6)C(=O)N(C6CCC(=O)NC6=O)C7=O)CC5)CC4)cc3)CC2)nc1 (stereo partly drawn) [4j, 3-Benzyl-1-((1r,4r)-4-((5-cyanopyridin-2-yl)amino)cyclohexyl)-1-(4-(4-((4-(2-(2,6-dioxopiperidin-3-yl)-1,3-dioxoisoindolin-5-yl)piperazin-1-yl)methyl)piperidin-1-yl)phenyl)urea]
62	62	76	76	N#Cc1ccc(N[C@H]2CC[C@H](N(C(=O)NCc3ccccc3)c3ccc(N4CCN(C5CN(c6ccc7c(c6)C(=O)N(C6CCC(=O)NC6=O)C7=O)C5)CC4)cc3)CC2)nc1 (stereo partly drawn) [4k, 3-Benzyl-1-((1r,4r)-4-((5-cyanopyridin-2-yl)amino)cyclohexyl)-1-(4-(4-(1-(2-(2,6-dioxopiperidin-3-yl)-1,3-dioxoisoindolin-5-yl)azetidin-3-yl)piperazin-1-yl)phenyl)urea]
